Laboratory results as given in publication PMC8234462, “Novel Cyclophilin Inhibitor Decreases Cell Proliferation and Tumor Growth in Models of Hepatocellular Carcinoma” (Cancers, 2021).
Where two headings read alike, the source gives them in different places.

Legend:
HUH7 = experiment: Cell proliferation and viability with Acridine Orange and DAPI; type: cell-based, human
Description: (§1) For the quantification of the total cell number, cells were seeded at a concentration of 6000 cells/well for HEPG2 and 9000 cells/well for HUH7 in a 24-well plate. After 24 h of seeding, cells were treated with 10, 50 or 100 nM of NV651 or DMSO as the control dissolved in their correspondent media, fresh media with compound was added every 72 h. After 72 h of treatment, cells were harvested and stained with DAPI (Santa Cruz Biotechnology, Cat# SC3598, Dallas, TX, USA) and Acridine Orange (AO) (Sigma-Aldrich, Cat# A9231-10ML, St. Louis, MO, USA) at final concentrations of 5 µg/mL and 1.5 µg/mL, respectively. Quantification of the total cell number and nonviable cells was performed every day up to the tenth day. Total cell number was quantified with acridine orange staining, and the cell viability in each sample was quantified by the ratio between cells positive for DAPI staining (nonpermeable dye) and acridine orange staining.

HEPG2 = experiment: as above; type: cell-based, human
Description: as §1

[1] = Pharmacokinetics single oral administration, blood and liver; type: in vivo; conditions: CD1 mice, 10 mg/kg PO; for Tmax: male, mouse
Description: These experiments were performed by Shanghai ChemPartner Co., Ltd. (Shanghai, China) following the guidance described above. Twelve CD1 male mice with a weight between 28–30 g were purchased from SLAC Laboratory Animal Co. Ltd. (Shanghai, China). NV651 was diluted in 5% ethanol, 5% Cremophor EL and 90% saline. A single 10-mg/kg dose of NV651 was given orally (PO). […] At the selected time points, 30 µL of the blood samples were taken via face glass insert or cardiac puncture and placed into K2EDTA tubes. Tissues were terminal-collected at the designated time points. Thirty microliters of blood or liver samples were mixed with 100-µL Pierce Acetonitrile (ACN, Thermo Fisher Scientific, Waltham, MA, USA) containing 20-ng/mL IS (702) used as the internal standard. An aliquot of 10-µL supernatant was injected for LC-MS/MS analysis using LCMSMS-003 (API4000).

CC(=O)CCC1C(=O)NC(C(C)C)C(=O)NC(Cc2cc(O)cc(F)c2)C(=O)N2CCCC(N2)C(=O)OC(C(C)=CC=CC(=O)OC(C)(C)C)CC=CC=CC(O)C(C)C1O (stereo not shown) [NV651]
cell viability (DAPI+ / AO+ cells) (HUH7; after 10 days of exposure): significant decrease
doubling time, elevated to (HUH7; different concentrations of NV651 up to 10 days, from 35 h): 155 h
doubling time, elevated to (HEPG2; different concentrations of NV651 up to 10 days, from 43 h): 827 h
cell viability (DAPI+ / AO+ cells) (HEPG2; up to 10 days of exposure): could not observe any differences
level in liver relative to blood ([1]; 24 h after treatment): three-fold higher level in the liver than blood
Tmax ([1]; blood, read-out: Tmax in blood): 1 h
Tmax ([1]; liver, read-out: Tmax in liver): 1 h
